The structures appear in SMILES notation.

In test [1] the target is T1, BSA (Bos taurus, UniProt P02769). Kind of test: Inhibition of CML glycation of BSA with DHA, dot-blot (part B). It is filed as biochemical, Bovine. The conditions noted are these: BSA 1%, DHA 1%, 1 day at 50°C; series I 0.17 % and II 9.82 mM of inhibitor. The procedure: Samples (A-F) were incubated for 1 day at 50°C and analysed for CML-content using the dot-blot approach set forth above in A. The dot-blot results are shown in Figure 11.
(§1) The samples had the following composition: • A: only BSA (1%) • B: BSA (1%) with DHA (1%) • C: BSA (1%) with Hydroxyproline and DHA (1 %) • D: BSA (1%) with N-Acetylhydroxyproline (NAHP) and DHA (1%) • E: BSA (1%) with Proline and DHA (1%) • F: BSA (1%) with Acetylproline and DHA (1%)
(§2) Each sample (A-F) was tested twice (I+II) with the difference that I. was conducted with 0.17 % of each inhibitor (Proline, Hydroxyproline, Acetylproline or NAHP) and II. was conducted with 9.82 mM of each inhibitor.
The intensity of each dot was quantified. The results are represented in Figure 12.

The target in test [2] is T1, BSA. Kind of test: Inhibition of BSA-CML formation with glucose, dot-blot with CML-specific antibody (part A). The conditions noted are these: BSA 1.035 %, glucose 1 M, 7 days at 50°C, various amounts of NAHP. It is filed as biochemical, Bovine. The procedure: BSA samples of were incubated with glucose for 7 days at 50°C in the presence of various amounts of NAHP and thereafter analysed for their CML-content using a dot-blot approach. An antibody which is specific for the CML modifications of immobilised proteins (in this case BSA) on a nitrocellulose membrane was used to make the CML modifications visible. […] The stronger the intensity of each dot in the above series, the higher is the concentration of CML-modifications on the BSA. The control consists of BSA without glycation agent (glucose). Each single dot was quantified for its intensity leading to the results which are shown diagrammatically in Figure 10.
The concentration of BSA was 1.035 % (10.35 mg/ml) and the concentration of glucose in each sample was 1 M.

For test [3], the target named is T1, BSA. Kind of test: AGE-fluorescence of BSA incubated with DHA (part B, samples II). It is filed as biochemical, Bovine. The conditions noted are these: BSA 1%, DHA 1%. The protocol:
as §1, §2
Samples A-F (II) were further tested regarding the inhibition of the formation of other AGEs (different from CML). To this end, the AGE-fluorescence at λex=370 nm and λem= 440 nm was measured. The wavelengths used are those proposed by Bellmunt et al., Lung 173 (1995), 177-85 and used by many laboratories.

The target of test [4] is T1, BSA. Kind of test: BSA-Glucose Assay of AGE formation at pH 5 and pH 7 (part F). In kind it is biochemical, Bovine. Conditions: BSA with glucose, 7 days at 50°C. The procedure:
As acetylated compounds result in a decrease in the pH, the effect of NAHP was compared at two different pH values (pH 5 and pH 7). As described in Section A, the BSA-Glucose Assay was used. To stabilize the pH the adjustment was performed after the addition of the inhibitor.
After incubation of BSA with glucose for 7 days at 50°C a significant increase in AGE fluorescence is detectable. An acidic environment (pH 5) results in a much less intensive AGE-formation in the BSA-Glucose Assay than a neutral, environment (pH 7).

For test [5], the system named is age spots (senile lentigo). Put plainly: Lightening effect on undesired skin pigmentation (age spots). It is filed as in vivo. Conditions: after seven days. The source says:
Undesired and uneven skin pigmentation such as, e.g., age spots (senile lentigo) are a major problem associated with the aging of skin and skin appendages. N-acetylhydroxyproline has an effect with respect to the lightening of age spots.

Test [6] concerns human fibroblasts. Kind of test: Contraction capacity of fibroblasts in 3D free-floating collagen lattices. It is filed as cell-based. Conditions: glyoxal treated vs control fibroblasts, n=10, p=0.00056. The procedure:
Further, normal fibroblasts were compared with fibroblasts with a higher CML-vimentin modification with respect to contractile capacities. The contractile capacity was determined using 3D free-floating collagen lattices^29,30.
100 mg Type I collagen (Sigma, St. Louis, USA) was dissolved at 4°C in 33.3 ml of 0.1% sterile acetic acid. 0.9 ml of 10x Hank's Buffer Salt Solution (Biochrom, Berlin, Germany) was added to 4.5 ml of this solution of collagen. 1.9 ml of 0.1% acetic acid was supplemented. NaOH was added dropwise to neutralise the solution. 1.5 x 10^5 fibroblasts were resuspended in 0.1 ml FCS and added to the solution for each ml of the gel. Casy Model TT (Schärfe System, Reutlingen, Germany) was used to count the fibroblasts and to control their viability. […] Diameters were measured at 0 hours and 24 hours. […]
Human fibroblasts were incubated for 7 days with 200 µM glyoxal^18,20 and tested for CML formation using FACS analysis as described above (a). Quantitative analysis of (a) is shown in panel (b, right columns) together with quantitative analysis of dot-blots as described in the legend to Fig.4 and the Methods section (b, left columns). […] Additionally, the two cell populations were lysed, vimentin was immunoprecipitated and analysed for CML-modification by SDS-page and immunoblotting. […] The contraction of these lattices was measured after 48h. […]

The subject of test [7] is Primary human fibroblasts. Put plainly: CML formation in fibroblasts after glyoxal treatment (FACS, immunoblot, immunoprecipitation). It is filed as cell-based. The conditions noted are these: 200 µM glyoxal for 7 days. The protocol: To test the effect of CML-modifications on vimentin function cells were treated with glyoxal to induce CML-vimentin modifications in fibroblasts. Primary human fibroblasts were incubated with 200 µM glyoxal for 7 days to enhance CML formation^18,20,28. […] The higher rate of CML-vimentin formation leads to a predominant modification of vimentin in the linker region of the molecule.
Proteins from cell extracts (20 µg per lane) were separated by gel electrophoresis under denaturing conditions on 10% SDS-PAGE gels. Immunoblotting was performed following standard procedures using chemiluminescence methods. […] Signals were quantified using LumiAnalyst (Boehringer Mannheim, Germany). […]
Fibroblasts were incubated for 7 days with 200 µM glyoxal^18,20. […] After 3 washing steps with PBS the fluorescence was measured using FACSCanto (BD Biosciences, San Jose, USA) and analysed by the software BD FACSDiva 4.0.
Human fibroblasts were incubated for 7 days with 200 µM glyoxal^18,20 and tested for CML formation using FACS analysis as described above (a). Quantitative analysis of (a) is shown in panel (b, right columns) together with quantitative analysis of dot-blots as described in the legend to Fig.4 and the Methods section (b, left columns). […] Additionally, the two cell populations were lysed, vimentin was immunoprecipitated and analysed for CML-modification by SDS-page and immunoblotting. […]

Test [8] deals with human fibroblasts. Put plainly: Vimentin redistribution to a perinuclear aggregate after glyoxal treatment (immunofluorescence microscopy). It is filed as cell-based. The procedure:
To determine whether the loss of contractile capacity is the result of a CML-induced redistribution of vimentin, immunofluorescence microscopic analysis of fibroblasts with and without glyoxal treatment were employed. […] About 90% of the fibroblasts were affected after incubation for 7 days.
For immunostaining, cells were fixed in 3% paraformaldehyde for 30 minutes at room temperature, washed with PBS and permeabilized with 0.5% Triton X-100 for 5 minutes; after which the cells were blocked with 3% BSA for 30 minutes. Cells were then incubated with primary antibody in 1% BSA for 1 hour. […] Cells were then incubated for 1 hour with 1% BSA solution containing fluorescence-labelled secondary antibodies (AlexaFluor 488 chicken-anti-mouse IgG, AlexaFluor 594 donkey-anti-goat IgG, AlexaFluor 546 donkey-anti-goat IgG, Molecular Probes, Eugene, Oregon) at 1:1,000 to visualise the target protein and DAPI (Molecular Probes, Eugene, Oregon). After extensive washing with PBS fluorescence images were recorded on a fluorescence microscope (Olympus, Hamburg, Germany) with an attached […] camera. Confocal fluorescence images were recorded on LSM 510 Meta (Carl Zeiss, Jena, Germany). […]

T1 sequence (P02769 25-607): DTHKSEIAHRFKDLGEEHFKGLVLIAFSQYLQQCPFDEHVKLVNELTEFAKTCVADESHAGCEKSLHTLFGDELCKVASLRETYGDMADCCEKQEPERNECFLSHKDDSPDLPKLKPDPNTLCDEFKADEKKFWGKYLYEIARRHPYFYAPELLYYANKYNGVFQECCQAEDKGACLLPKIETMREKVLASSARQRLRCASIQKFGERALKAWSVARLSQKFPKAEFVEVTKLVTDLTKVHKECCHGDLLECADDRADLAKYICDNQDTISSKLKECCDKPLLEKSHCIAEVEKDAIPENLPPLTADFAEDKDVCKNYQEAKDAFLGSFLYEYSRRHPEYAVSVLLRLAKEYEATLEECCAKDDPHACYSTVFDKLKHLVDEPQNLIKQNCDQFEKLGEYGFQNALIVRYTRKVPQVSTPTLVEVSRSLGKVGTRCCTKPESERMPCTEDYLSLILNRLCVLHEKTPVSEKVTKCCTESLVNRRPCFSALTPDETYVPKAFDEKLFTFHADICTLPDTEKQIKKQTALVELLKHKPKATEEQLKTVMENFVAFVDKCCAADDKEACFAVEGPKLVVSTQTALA

Consider `CC(=O)N1CCC[C@H]1C(=O)O` [Acetylproline, reference compound], for which the “inhibitory effect on the CML-glycation of BSA (dot-blot intensity)” value on BSA [1] is recorded as “potent inhibitor of the CML-glycation, but to a lesser extent than NAHP”.
For the compound `CC(=O)N1C[C@H](O)C[C@H]1C(=O)O` [NAHP, N-acetylhydroxyproline], the “CML glycation of BSA (dot-blot intensity)” value at BSA [2] is on record as “protective effect on BSA, preventing the CML glycation of this protein”. For the same compound, on BSA [3] (9.82 mM inhibitor (samples II)), the “formation of fluorescent AGEs (AGE-fluorescence at λex=370 nm and λem= 440 nm)” value is “inhibited”. Also, the “brownish color of AGEs in the solution” value on BSA [3] (samples II, digital picture) is “absent”. Further, the “AGE-formation (AGE fluorescence) at pH 5” value at BSA [4] (pH 5) is listed as “reduced AGE-formation”. Also, the “AGE-formation (AGE fluorescence) at pH 7” value on BSA [4] (pH 7) was “reduced AGE-formation”. The “inhibitory effect on the CML-glycation of BSA (dot-blot intensity)” value on BSA [1] is “strongest inhibitory effect”. For the same compound, the “brightness of the treated age spot” value in test [5] is “increase in brightness”.
For the compound `O=CC=O` [glyoxal], the “contractile capacity of fibroblasts in 3D collagen lattices” value in the test with human fibroblasts [6] is reported as “significantly reduced”. The “CML as measured by FACS and immunoblot analysis” value in test [7] is “massive increase of CML”. In the test with human fibroblasts [8] (200 µM glyoxal for 2 days), the “fibroblasts showing perinuclear vimentin aggregate formation” value is on record as “About 70%”. The “fibroblasts affected by vimentin aggregate formation” value in the test on human fibroblasts [8] (200 µM glyoxal, incubation for 7 days) is given as “About 90%”.
